These results are taken from US5541189A, “Substituted aliphatic amine-containing macrocyclic immunomodulators” (Abbott Laboratories, priority 1995, dated 1996).

The IC50 is the concentration at which inhibition is half-maximal. A higher IC50 goes with a need for much substance.

The test system of assay [1] is human mixed lymphocyte reaction (MLR). The assay is described as follows: human mixed lymphocyte reaction (MLR) assay, immunosuppressant activity. The assay is classed as cell-based. Conditions: in vitro. On the procedure:
The immunosuppressant activity of the compounds of the present invention was determined using the human mixed lymphocyte reaction (MLR) assay described by Kino, T. et al. in Transplantation Proceedings XIX(5):36-39, Suppl. 6 (1987), incorporated herein by reference.

The next assay deals with P-glycoprotein. The note with it: known; increasing sensitivity of multidrug resistant (MDR) cells to chemotherapeutic agents; cited from earlier work.

In assay [1], `CC[C@@H]1/C=C(\C)C[C@H](C)C[C@H](OC)[C@H]2O[C@@](O)(C(=O)C(=O)N3CCCC[C@H]3C(=O)O[C@H](/C(C)=C/[C@@H]3CC[C@H](N(CC)CCN(CC)CC)[C@H](OC)C3)[C@H](C)[C@@H](O)CC1=O)[C@H](C)C[C@@H]2OC` [Example 29] came in with an IC50 of less than 1000 nM.

`CC[C@@H]1/C=C(\C)C[C@H](C)C[C@H](OC)[C@H]2O[C@@](O)(C(=O)C(=O)N3CCCC[C@H]3C(=O)O[C@H](/C(C)=C/[C@@H]3CC[C@H](NCCN(CC)CC)[C@H](OC)C3)[C@H](C)[C@@H](O)CC1=O)[C@H](C)C[C@@H]2OC` [Example 13] returned an IC50 in assay [1] of less than 1000 nM.

On to `C=CC[C@@H]1/C=C(\C)C[C@H](C)C[C@H](OC)[C@H]2O[C@@](O)(C(=O)C(=O)N3CCCC[C@H]3C(=O)O[C@H](/C(C)=C/[C@@H]3CC[C@@H](O)[C@H](OC)C3)[C@H](C)[C@@H](O)CC1=O)[C@H](C)C[C@@H]2OC` [FK-506], for which the “modulators of P-glycoprotein” value with P-glycoprotein is “effective modulators of P-glycoprotein”.

In the case of `CC[C@@H]1/C=C(\C)C[C@H](C)C[C@H](OC)[C@H]2O[C@@](O)(C(=O)C(=O)N3CCCC[C@H]3C(=O)O[C@H](/C(C)=C/[C@@H]3CC[C@@H](NCCCN(C)C)[C@H](OC)C3)[C@H](C)[C@@H](O)CC1=O)[C@H](C)C[C@@H]2OC` [Example 47], the IC50 in assay [1] was less than 1000 nM.

Regarding `CC[C@@H]1/C=C(\C)C[C@H](C)C[C@H](OC)[C@H]2O[C@@](O)(C(=O)C(=O)N3CCCC[C@H]3C(=O)O[C@H](/C(C)=C/[C@@H]3CC[C@H](NCCCN(C)C)[C@H](OC)C3)[C@H](C)[C@@H](O)CC1=O)[C@H](C)C[C@@H]2OC` [Example 7], the concentration for half-maximal inhibition (IC50) in assay [1] was less than 1000 nM.
